How the values were obtained:
Thymidylate kinase [1] = molecular target: T1, Thymidylate kinase (Mycobacterium tuberculosis, UniProt P9WKE1); experiment: Inhibition of Mycobacterium tuberculosis H37Rv TMPK expressed in Escherichia coli by coupled enzyme based spectrophotometric analysis
T1 sequence (P9WKE1 whole entry): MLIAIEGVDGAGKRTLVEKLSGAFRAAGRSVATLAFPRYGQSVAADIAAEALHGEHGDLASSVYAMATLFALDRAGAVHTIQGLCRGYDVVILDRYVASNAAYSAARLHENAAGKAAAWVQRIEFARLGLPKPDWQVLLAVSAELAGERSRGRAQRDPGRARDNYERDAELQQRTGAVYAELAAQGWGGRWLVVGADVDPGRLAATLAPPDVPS

MRC5 = experiment: Cytotoxicity against human MRC-5 cells assessed as reduction in cell growth measured after 3 days by resazurin dye based fluorometric analysis; details: MRC5, 72 h
[2] = test system: Mycobacterium tuberculosis; experiment: Antimycobacterial activity against Mycobacterium tuberculosis H37Rv ATCC 27294 assessed as inhibition of bacterial growth in presence of glucose by broth microdilution method; assay type: functional
[3] = test system: Mycobacterium tuberculosis; experiment: Antibacterial activity againstMycobacterium tuberculosis H37Rv assessed as inhibition of bacterial growth in presence of efflux pump inhibitor PAbetaN and glucose […] by microdilution assay; assay type: functional
[4] = test system: Mycobacterium tuberculosis; experiment: Antibacterial activity against Mycobacterium tuberculosis H37Rv assessed as inhibition of bacterial growth in presence of efflux pump inhibitor verapamil and glucose […] by microdilution assay; assay type: functional
Thymidylate kinase [5] = molecular target: T2, Thymidylate kinase (Homo sapiens, UniProt P23919); experiment: Inhibition of human TMPK at 40 uM
T2 sequence (P23919 whole entry): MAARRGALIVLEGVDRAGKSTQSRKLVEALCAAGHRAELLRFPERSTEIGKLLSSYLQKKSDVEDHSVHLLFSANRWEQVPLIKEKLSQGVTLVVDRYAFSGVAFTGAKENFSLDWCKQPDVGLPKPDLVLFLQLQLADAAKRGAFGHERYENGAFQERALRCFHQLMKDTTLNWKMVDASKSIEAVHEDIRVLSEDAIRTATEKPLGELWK

Thymidylate kinase [6] = molecular target: T2, Thymidylate kinase; experiment: Inhibition of human TMPK at 31 uM
[7] = Mycobacterium tuberculosis, H37Rv ATCC 27294, read-out: MIC
[8] = Mycobacterium tuberculosis, H37Rv, read-out: MIC

Compound	IC50 (Thymidylate kinase [1])	IC50 (MRC5)	MIC [2, 7]	also measured
Cc1cn(C2CCN(Cc3cccc(Oc4ccccc4)c3)CC2)c(=O)[nH]c1=O	6100 nM	–	–	–
Cc1cn(C2CCN(Cc3cccc(Oc4cccc(F)c4)c3)CC2)c(=O)[nH]c1=O	2900 nM	> 64 µM	25 µM	–
Cc1cn(C2CCN(Cc3ccnc(Oc4ccccc4)c3)CC2)c(=O)[nH]c1=O	10200 nM	> 64 µM	> 50 µM	–
Cc1cn(C2CCN(Cc3cccc(Oc4cccc(C(F)(F)F)c4)c3)CC2)c(=O)[nH]c1=O	600 nM	12.4 µM	19 µM	–
COc1cccc(Oc2cccc(CN3CCC(n4cc(C)c(=O)[nH]c4=O)CC3)c2)c1	1200 nM	25.3 µM	25 µM	–
Cc1cn(C2CCN(Cc3cccc(OC4CCCC4)c3)CC2)c(=O)[nH]c1=O	32000 nM	30.3 µM	> 50 µM	–
COc1ccc(Oc2cccc(CN3CCC(n4cc(C)c(=O)[nH]c4=O)CC3)c2)cc1	10500 nM	28 µM	–	MIC [3]: 15.6 µg/mL; MIC [2]: 31.25 µM; MIC [4, 8]: 15.6 µg/mL
Cc1cn(C2CCN(Cc3cccc(Oc4cccnc4)c3)CC2)c(=O)[nH]c1=O	27000 nM	> 64 µM	> 50 µM	–
Cc1cn(C2CCN(Cc3cccc(Oc4ccc(Cl)c(C(F)(F)F)c4)c3)CC2)c(=O)[nH]c1=O	1100 nM	5.28 µM	25 µM	inhibition (INH) (Thymidylate kinase [5]): Not Active
Cc1cn(C2CCN(Cc3cccc(Oc4ccc(Cl)cc4)c3)CC2)c(=O)[nH]c1=O	6900 nM	25.1 µM	12.5 µM	–
Cc1cn(C2CCN(Cc3cccc(Oc4cccc(Cl)c4)c3)CC2)c(=O)[nH]c1=O	890 nM	21 µM	12.5 µM	–
Cc1cn(C2CCN(Cc3cccc(Oc4cc(F)cc(F)c4)c3)CC2)c(=O)[nH]c1=O	2800 nM	> 64 µM	> 50 µM	–
Cc1cn(C2CCN(Cc3cccc(Oc4ccncc4)c3)CC2)c(=O)[nH]c1=O	20000 nM	–	–	–
Cc1cn(C2CCN(Cc3cc(Oc4ccccc4)ccn3)CC2)c(=O)[nH]c1=O	8700 nM	> 64 µM	> 50 µM	–
Cc1cn(C2CCN(Cc3cccc(Oc4cc(C(F)(F)F)cc(C(F)(F)F)c4)c3)CC2)c(=O)[nH]c1=O	140 nM	–	> 50 µM	–
Cc1cn(C2CCN(Cc3cccc(Oc4cccc(Cl)c4)n3)CC2)c(=O)[nH]c1=O	450 nM	> 64 µM	31 µM	inhibition (INH) (Thymidylate kinase [5]): Not Active
Cc1cn(C2CCN(Cc3cccc(Oc4ccc(Cl)c(Cl)c4)c3)CC2)c(=O)[nH]c1=O	1100 nM	6.1 µM	12.5 µM	inhibition (INH) (Thymidylate kinase [5]): Not Active
Cc1ccc(Oc2cccc(CN3CCC(n4cc(C)c(=O)[nH]c4=O)CC3)c2)cc1	12000 nM	> 64 µM	31.2 µM	MIC [3]: 15.6 µg/mL; MIC [4, 8]: 15.6 µg/mL

Compound	IC50 (Thymidylate kinase [1])	IC50 (MRC5)	MIC [2, 7]	also measured
Cc1cn(C2CCN(Cc3cccc(Oc4ccc(F)c(F)c4)c3)CC2)c(=O)[nH]c1=O	2600 nM	> 64 µM	19 µM	–
Cc1cn(C2CCN(Cc3cccc(OC4CCCCC4)c3)CC2)c(=O)[nH]c1=O	42000 nM	23.6 µM	37 µM	–
Cc1cn(C2CCN(Cc3cncc(Oc4cccc(OC(F)(F)F)c4)c3)CC2)c(=O)[nH]c1=O	810 nM	> 64 µM	37 µM	–
Cc1cn(C2CCN(Cc3cc(Oc4cccc(Cl)c4)ccn3)CC2)c(=O)[nH]c1=O	2800 nM	> 64 µM	> 50 µM	–
Cc1cn(C2CCN(Cc3cccc(Oc4cccc(OC(F)(F)F)c4)c3)CC2)c(=O)[nH]c1=O	650 nM	5.26 µM	25 µM	inhibition (INH) (Thymidylate kinase [5]): Not Active
Cc1cn(C2CCN(Cc3cncc(Oc4cc(Cl)cc(Cl)c4)c3)CC2)c(=O)[nH]c1=O	220 nM	> 64 µM	43 µM	inhibition (INH) (Thymidylate kinase [6]): Not Active
Cc1cn(C2CCN(Cc3cccc(Oc4ccccc4)n3)CC2)c(=O)[nH]c1=O	–	> 64 µM	> 50 µM	MIC [3]: 62.5 µg/mL; MIC [4, 8]: 125 µg/mL
Cc1cn(C2CCN(Cc3cccc(Oc4ccc(O)cc4)n3)CC2)c(=O)[nH]c1=O	1100 nM	–	> 50 µM	–
Cc1cn(C2CCN(Cc3ccnc(Oc4cccc(Cl)c4)c3)CC2)c(=O)[nH]c1=O	3100 nM	> 64 µM	37 µM	MIC [3]: 15.6 µg/mL; MIC [4]: 31.25 µg/mL
Cc1cn(C2CCN(Cc3cccc(Oc4ccccc4C(=O)O)n3)CC2)c(=O)[nH]c1=O	25000 nM	–	> 50 µM	–
Cc1cn(C2CCN(Cc3cncc(Oc4ccccc4)c3)CC2)c(=O)[nH]c1=O	6400 nM	> 64 µM	37 µM	–
Cc1cn(C2CCN(Cc3cccc(Oc4cccc(O)c4)c3)CC2)c(=O)[nH]c1=O	–	> 64 µM	–	–
Cc1cn(C2CCN(Cc3cncc(Oc4cccc(Cl)c4)c3)CC2)c(=O)[nH]c1=O	770 nM	> 64 µM	31 µM	–
Cc1cccc(Oc2cccc(CN3CCC(n4cc(C)c(=O)[nH]c4=O)CC3)c2)c1	26000 nM	> 64 µM	37 µM	–
Cc1cn(C2CCN(Cc3cc(Oc4cc(Cl)cc(Cl)c4)ccn3)CC2)c(=O)[nH]c1=O	600 nM	–	34 µM	–
Cc1cn(C2CCN(Cc3cccc(Oc4cc(Cl)cc(Cl)c4)c3)CC2)c(=O)[nH]c1=O	120 nM	6.73 µM	12.5 µM	MIC [3]: 7.8 µg/mL; inhibition (INH) (Thymidylate kinase [5]): Not Active; MIC [4, 8]: 7.8 µg/mL
Cc1cn(C2CCN(Cc3cccc(Oc4ccccn4)c3)CC2)c(=O)[nH]c1=O	41000 nM	> 64 µM	> 50 µM	–
